In US20230027026A1, “FUSED PYRIMIDINE COMPOUNDS, COMPOSITIONS AND MEDICINAL APPLICATIONS THEREOF” (JUBILANT BIOSYS LIMITED, priority 2019, published 2023):

How the values were obtained:
EGFR (T790M/L858R) = molecular target: T1, EGFR (T790M/L858R) (Homo sapiens, UniProt P00533, L858R/T790M); assay: EGFR L858R/T790M enzyme inhibition assay (HTRF); type: biochemical; conditions: 5 μM ATP, 60 min, read-out: EGFR_L858R T790M_IC50_nM
T1 construct: GST; purchased Proqinase
Description: Example 2: EGFR L858R & Del19/T790M Assay Protocol (to Find the IC50 for the Compounds Using HTRF Method)
Reagents for Enzyme Assay:
• 1. Enzyme Assay Buffer: 60 mM HEPES (pH 7.4), 50 mM NaCl, 20 mM MgCl2, 5 mM MnCl2, filtered using 0.2 μm pore size, stored at 4° C. • Supplements (added fresh to the enzyme buffer): 1M DTT stock was made, 5% BSA stock and 0.1M Na3OV4 stored at 4° C. Enzyme assay buffer 50 mL, 1 M DTT 100 μL, 5% BSA 500 μL, 0.1 M Na3OV4 50 μL. • 2. GST-hEGFR (L858R), active: EGFR (T790M/L858R), active (Proqinase), 3.6 μM stock; 2.5 nM in final assay. • 3. Gastrin Precusor-Biotinylated: Gastrin precursor (Tyr87) biotinylated peptide, EEAY*GWM, Cell Signaling Tech 1310, Lot-7, Want final 0.5 μM in assay. • 4. ATP: 10 mM stock in 100 μL Enzyme assay buffer pH 7.4 prepared freshly, want 5 μM in final assay. • 5. Test compounds: Powders were dissolved in 100% DMSO and made up to a final stock concentration of 10 mM (volume in μL to add for 10 mM=mg powder X 10^5/MW). Final compound concentration in the assay plate started at 10 μM.
• 1. HTRF buffer: 50 mM Tris —HCl, pH-7.5, 100 mM NaCl, 0.1% BSA, 0.05% Tween20, 0.5 mM EDTA, filtered using 0.2 μm pore size, stored at 4° C. • Phycolink® Streptavidin-Allophycocyanin (SA-APC) Prozyme, Cat. #PJ25S, Lot #896 085, 2.06 mg/mL, APC concentration is 11.6 μM, streptavidin concentration is 15.5 μM. Want 12 nM final in assay (based on streptavidin concentration). • 2. (Europium) Eu-W1024 Anti-phosphotyrosine (PT-66) Antibody: Perkin Elmer (Product Number: AD0068), monoclonal IgG1 that recognizes phosphotyrosine peptide 100 μg/ml stock. Want 0.1 nM final in assay.
• 1. The compound dilution was made by TECAN as per the above scheme. • 2. 16 μL of diluted compound was added to the assay plate by using TECAN. • 3. 10 μL of enzyme mix was added to each well except mins. • 4. 20 μL of substrate and ATP mix were added into each well of the assay plate, manually. • 5. The plate was incubated on a laboratory shaker at room temperature for 60 min. • 6. Meanwhile, the HTRF mix was prepared and 75 μL was added to the HTRF plate. • 7. When the incubation was over, 10 μL of the reaction mixture was transferred to the HTRF assay plate and incubated on a laboratory shaker for 30 min at room temperature. • 8. The reading was taken in Pherastar (ext 337 nm, Em 665 & 620 nm). • 9. The results were analyzed using Graphpad prism after calculation of the z factor, signal window and % inhibition to get the IC50.

[1] = molecular target: EGFR (A767_dupASV) expressing Ba/F3 stable cell line (Homo sapiens, UniProt P00533, DUP767-769, cells depend on it); assay: Cellular proliferation (Alamar Blue) assay, EGFR A767_dupASV Ba/F3; type: cell-based; conditions: EGFR A767_dupASV Ba/F3, 72 hr, read-out: A767 IC50
Method in brief: (§1)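 Ba/F3 lines (15,000 cells/well, RPMI with 10% FBS) expressing mutant EGFR or HER2, plus BT-474 cells, treated 72 h at 37 °C with compound at 10-0.0005 μM final, 3-fold dilutions. Viability by Alamar Blue after 3 h, fluorescence 540 nm excitation/590 nm emission.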

A431 cells = assay: Cellular proliferation (Alamar Blue) assay, A431; type: cell-based; conditions: Homo sapiens, A-431; A431 cells, 72 hr, Alamar Blue; read-out: A431 IC50
Method in brief: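 Following a 16–18 h pre-incubation, cells received compound or DMSO for 72 h at 37 °C across a 10–0.0005 μM final range. Proliferation was then scored by Alamar Blue fluorescence (540 nm excitation, 590 nm emission) after 3 h.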

[2] = tested on: H1975 cells (L858R_T790M mutant); assay: H1975 proliferation assay; type: cell-based; conditions: Homo sapiens, NCI-H1975; read-out: Proliferation_Assay H1975 cells-EC50_nM L858R_T790M_mutant
[3] = molecular target: EGFR(D770_N771insSVD) expressing Ba/F3 stable cell line (Homo sapiens, UniProt P00533, DUP768-770, cells depend on it); assay: Cellular proliferation (Alamar Blue) assay, EGFR D770_N771insSVD Ba/F3; type: cell-based; conditions: EGFR D770_N771insSVD Ba/F3, 72 hr, read-out: D770 IC50
Method in brief: as §1

EGFR(D770_N771insSVD) expressing Ba/F3 stable cell line, sequence (P00533 with tags, fused parts or gaps DUP768-770): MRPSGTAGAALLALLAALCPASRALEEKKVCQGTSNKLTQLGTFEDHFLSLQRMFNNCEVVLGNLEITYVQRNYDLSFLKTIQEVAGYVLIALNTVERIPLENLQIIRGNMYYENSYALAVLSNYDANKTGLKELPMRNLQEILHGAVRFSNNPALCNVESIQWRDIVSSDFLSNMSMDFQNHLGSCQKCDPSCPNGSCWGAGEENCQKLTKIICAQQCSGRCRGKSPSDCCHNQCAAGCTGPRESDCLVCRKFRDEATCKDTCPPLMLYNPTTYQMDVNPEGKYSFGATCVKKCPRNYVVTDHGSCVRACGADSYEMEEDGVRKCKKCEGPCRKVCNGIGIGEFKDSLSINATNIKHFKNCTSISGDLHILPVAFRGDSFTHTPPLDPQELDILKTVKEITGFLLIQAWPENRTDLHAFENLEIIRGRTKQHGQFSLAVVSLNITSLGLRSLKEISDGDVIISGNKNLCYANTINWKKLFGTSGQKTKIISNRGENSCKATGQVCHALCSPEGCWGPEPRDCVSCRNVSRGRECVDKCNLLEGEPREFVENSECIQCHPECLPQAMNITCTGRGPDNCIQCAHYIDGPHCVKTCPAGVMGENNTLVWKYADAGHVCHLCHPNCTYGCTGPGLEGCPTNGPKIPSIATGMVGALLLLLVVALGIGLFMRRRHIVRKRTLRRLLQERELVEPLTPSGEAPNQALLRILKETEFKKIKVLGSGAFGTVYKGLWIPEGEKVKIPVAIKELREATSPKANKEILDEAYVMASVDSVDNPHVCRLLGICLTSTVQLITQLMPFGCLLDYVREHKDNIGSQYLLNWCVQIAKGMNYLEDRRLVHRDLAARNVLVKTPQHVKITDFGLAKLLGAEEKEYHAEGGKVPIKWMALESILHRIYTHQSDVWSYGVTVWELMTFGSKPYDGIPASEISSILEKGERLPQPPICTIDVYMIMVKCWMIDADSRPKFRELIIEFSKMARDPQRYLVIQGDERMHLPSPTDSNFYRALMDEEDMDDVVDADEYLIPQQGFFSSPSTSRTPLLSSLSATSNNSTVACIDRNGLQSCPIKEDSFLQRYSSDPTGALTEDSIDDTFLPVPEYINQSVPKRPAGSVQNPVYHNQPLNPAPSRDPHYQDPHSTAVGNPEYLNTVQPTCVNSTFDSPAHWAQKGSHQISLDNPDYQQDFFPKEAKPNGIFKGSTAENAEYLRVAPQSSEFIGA
EGFR (A767_dupASV) expressing Ba/F3 stable cell line, sequence (P00533 with tags, fused parts or gaps DUP767-769): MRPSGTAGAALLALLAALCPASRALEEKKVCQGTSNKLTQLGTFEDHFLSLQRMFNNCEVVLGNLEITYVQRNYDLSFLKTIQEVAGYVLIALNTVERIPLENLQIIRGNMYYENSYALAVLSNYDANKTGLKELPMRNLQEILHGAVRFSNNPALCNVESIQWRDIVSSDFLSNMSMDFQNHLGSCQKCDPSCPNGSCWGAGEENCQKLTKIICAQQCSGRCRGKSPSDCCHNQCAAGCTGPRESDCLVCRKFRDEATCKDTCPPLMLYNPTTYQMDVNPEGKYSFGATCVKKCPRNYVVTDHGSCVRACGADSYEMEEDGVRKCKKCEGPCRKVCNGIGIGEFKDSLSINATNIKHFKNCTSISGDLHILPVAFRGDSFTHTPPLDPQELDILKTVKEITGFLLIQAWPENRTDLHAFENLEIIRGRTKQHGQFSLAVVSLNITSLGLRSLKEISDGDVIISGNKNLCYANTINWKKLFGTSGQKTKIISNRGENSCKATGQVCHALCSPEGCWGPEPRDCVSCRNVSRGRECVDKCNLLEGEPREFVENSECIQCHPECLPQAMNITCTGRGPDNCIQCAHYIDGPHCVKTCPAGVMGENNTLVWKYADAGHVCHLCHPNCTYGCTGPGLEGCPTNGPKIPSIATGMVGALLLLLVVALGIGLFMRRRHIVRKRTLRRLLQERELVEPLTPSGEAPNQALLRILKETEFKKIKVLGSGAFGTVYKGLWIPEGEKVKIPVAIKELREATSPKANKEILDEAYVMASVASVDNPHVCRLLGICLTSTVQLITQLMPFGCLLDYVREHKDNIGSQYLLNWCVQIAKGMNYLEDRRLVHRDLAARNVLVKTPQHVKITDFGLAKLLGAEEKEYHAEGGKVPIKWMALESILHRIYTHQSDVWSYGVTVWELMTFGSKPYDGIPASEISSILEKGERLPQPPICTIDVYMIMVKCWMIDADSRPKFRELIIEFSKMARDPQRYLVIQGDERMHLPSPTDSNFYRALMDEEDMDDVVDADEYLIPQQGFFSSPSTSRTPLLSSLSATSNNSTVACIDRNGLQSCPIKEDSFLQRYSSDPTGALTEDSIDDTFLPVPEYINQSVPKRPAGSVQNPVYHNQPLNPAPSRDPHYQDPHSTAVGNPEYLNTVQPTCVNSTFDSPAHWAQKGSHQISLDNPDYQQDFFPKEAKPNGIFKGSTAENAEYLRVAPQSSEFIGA
T1 sequence (P00533 25-1210 T790M/L858R): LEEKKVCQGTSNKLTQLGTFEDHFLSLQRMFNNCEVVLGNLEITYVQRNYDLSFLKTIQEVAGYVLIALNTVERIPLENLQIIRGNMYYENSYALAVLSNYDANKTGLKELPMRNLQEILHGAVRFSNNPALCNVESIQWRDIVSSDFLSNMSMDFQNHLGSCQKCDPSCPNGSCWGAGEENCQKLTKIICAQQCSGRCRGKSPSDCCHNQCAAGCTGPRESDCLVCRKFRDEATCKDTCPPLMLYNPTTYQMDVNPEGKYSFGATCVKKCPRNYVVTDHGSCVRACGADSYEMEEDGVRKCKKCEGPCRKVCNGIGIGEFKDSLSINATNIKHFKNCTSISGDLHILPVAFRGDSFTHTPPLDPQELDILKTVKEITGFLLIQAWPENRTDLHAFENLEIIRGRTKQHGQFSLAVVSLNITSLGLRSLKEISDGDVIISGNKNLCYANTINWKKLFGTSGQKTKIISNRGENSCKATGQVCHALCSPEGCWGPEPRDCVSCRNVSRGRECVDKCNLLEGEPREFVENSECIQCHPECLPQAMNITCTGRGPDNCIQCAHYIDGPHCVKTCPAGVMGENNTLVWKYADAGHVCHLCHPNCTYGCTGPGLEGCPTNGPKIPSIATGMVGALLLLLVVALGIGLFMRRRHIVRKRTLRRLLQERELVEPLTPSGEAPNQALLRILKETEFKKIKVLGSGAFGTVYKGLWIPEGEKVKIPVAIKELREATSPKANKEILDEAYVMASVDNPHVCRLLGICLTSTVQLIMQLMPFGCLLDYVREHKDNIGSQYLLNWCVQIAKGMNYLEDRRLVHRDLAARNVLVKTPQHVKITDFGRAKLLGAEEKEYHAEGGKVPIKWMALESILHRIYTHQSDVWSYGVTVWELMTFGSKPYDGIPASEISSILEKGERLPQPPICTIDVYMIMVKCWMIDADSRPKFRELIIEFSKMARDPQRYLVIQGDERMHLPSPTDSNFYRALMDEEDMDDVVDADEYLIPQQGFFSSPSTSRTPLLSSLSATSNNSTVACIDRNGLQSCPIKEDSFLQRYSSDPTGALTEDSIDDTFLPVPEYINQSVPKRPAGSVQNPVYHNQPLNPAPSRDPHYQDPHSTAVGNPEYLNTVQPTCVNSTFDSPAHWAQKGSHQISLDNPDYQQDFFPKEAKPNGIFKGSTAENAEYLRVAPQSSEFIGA

SMILES	IC50 (EGFR (T790M/L858R)) [µM]	GI50 [1] [µM]	IC50 (A431 cells) [µM]	EC50 [2] [µM]	GI50 [3] [µM]
CC(c1ccccc1)N1Cc2cnc(Nc3cnn(C)c3)nc2N(c2cccc(NC(=O)/C=C/CN(C)C)c2)C1=O (racemic) [Compound 10, (E)-4-(dimethylamino)-N-(3-(7-((1-methyl-1H-pyrazol-4-yl)amino)-2-oxo-3-(1-phenylethyl)-3,4-dihydropyrimido[4,5-d]pyrimidin-1(2H)-yl)phenyl)but-2-enamide]	0.004	0.105	0.638	0.0045	0.108
C=CC(=O)Nc1cccc(N2C(=O)N(Cc3ccccc3)Cc3cnc(Nc4cnn(C)c4C)nc32)c1 [Compound 4, N-(3-(3-benzyl-7-((1,5-dimethyl-1H-pyrazol-4-yl)amino)-2-oxo-3,4-dihydropyrimido[4,5-d]pyrimidin-1(2H)-yl)phenyl)acrylamide]	0.0024	0.057	0.078	0.0049	0.04
CN(C)C/C=C/C(=O)Nc1cccc(N2C(=O)N(Cc3ccccc3)Cc3cnc(Nc4ccc5cnn(C)c5c4)nc32)c1 [Compound 45, (E)-N-(3-(3-benzyl-7-((1-methyl-1H-indazol-6-yl)amino)-2-oxo-3,4-dihydropyrimido[4,5-d]pyrimidin-1(2H)-yl)phenyl)-4-(dimethylamino)but-2-enamide]	0.011	0.352	1.13	0.0467	0.35
Cc1cc(Nc2ncc3c(n2)N(C2CCCC(NC(=O)/C=C/CN(C)C)C2)C(=O)N(Cc2ccccc2)C3)sn1 (stereo not shown) [Compound 32, (E)-N-(3-(3-benzyl-7-((3-methylisothiazol-5-yl)amino)-2-oxo-3,4-dihydropyrimido[4,5-d]pyrimidin-1(2H)-yl)cyclohexyl)-4-(dimethylamino)but-2-enamide]	0.082	2.91	1.37	0.176	2.88
Cc1cc(Nc2ncc3c(n2)N(c2cccc(NC(=O)/C=C/CN(C)C)c2)C(=O)N(Cc2ccccc2)C3)sn1 [Compound 22, (E)-N-(3-(3-benzyl-7-((3-methylisothiazol-5-yl)amino)-2-oxo-3,4-dihydropyrimido[4,5-d]pyrimidin-1(2H)-yl)phenyl)-4-(dimethylamino)but-2-enamide]	0.007	0.121	0.046	0.01	0.278
C=CC(=O)Nc1cccc(N2C(=O)N(Cc3ccccc3)Cc3cnc(Nc4cnn(CCO)c4)nc32)c1 [Compound 13, N-(3-(3-benzyl-7-((1-(2-hydroxyethyl)-1H-pyrazol-4-yl)amino)-2-oxo-3,4-dihydropyrimido[4,5-d]pyrimidin-1(2H)-yl)phenyl)acrylamide]	0.001	0.045	0.059	0.0015	0.042
C=CS(=O)(=O)Nc1cccc(N2C(=O)N(Cc3ccccc3)Cc3cnc(Nc4cnn(C)c4)nc32)c1 [Compound 47, N-(3-(3-benzyl-7-((1-methyl-1H-pyrazol-4-yl)amino)-2-oxo-3,4-dihydropyrimido[4,5-d]pyrimidin-1(2H)-yl)phenyl)ethenesulfonamide]	0.0009	2.26	≥ 10	0.819	≥ 10
CN(C)C/C=C/C(=O)Nc1cccc(N2C(=O)N(c3ccc(F)cc3)Cc3cnc(Nc4cnn(C)c4)nc32)c1 [Compound 18, (E)-4-(dimethylamino)-N-(3-(3-(4-fluorophenyl)-7-((1-methyl-1H-pyrazol-4-yl)amino)-2-oxo-3,4-dihydropyrimido[4,5-d]pyrimidin-1(2H)-yl)phenyl)but-2-enamide]	0.0025	0.421	0.332	0.034	1.1
CN(C)C/C=C/C(=O)Nc1cccc(N2C(=O)N(Cc3ccccc3)Cc3cnc(Nc4cn(C)nn4)nc32)c1 [Compound 26, (E)-N-(3-(3-benzyl-7-((1-methyl-1H-1,2,3-triazol-4-yl)amino)-2-oxo-3,4-dihydropyrimido[4,5-d]pyrimidin-1(2H)-yl)phenyl)-4-(dimethylamino)but-2-enamide]	0.005	3.33	3.08	0.222	3.69
CN(C)C/C=C/C(=O)Nc1cccc(N2C(=O)N(Cc3ccccc3)Cc3cnc(Nc4ccc5c(c4)cc(C#N)n5C)nc32)c1 [Compound 44, (E)-N-(3-(3-benzyl-7-((2-cyano-1-methyl-1H-indol-5-yl)amino)-2-oxo-3,4-dihydropyrimido[4,5-d]pyrimidin-1(2H)-yl)phenyl)-4-(dimethylamino)but-2-enamide]	0.009	0.123	0.056	0.0376	0.106
COCCn1cc(Nc2ncc3c(n2)N(c2cccc(NC(=O)/C=C/CN(C)C)c2)C(=O)N(Cc2ccccc2)C3)cn1 [Compound 16, (E)-N-(3-(3-benzyl-7-((1-(2-methoxyethyl)-1H-pyrazol-4-yl)amino)-2-oxo-3,4-dihydropyrimido[4,5-d]pyrimidin-1(2H)-yl)phenyl)-4-(dimethylamino)but-2-enamide]	0.001	1.17	0.371	0.0157	2.31
Cc1nn(CC(F)(F)F)cc1Nc1ncc2c(n1)N(c1cccc(NC(=O)/C=C/CN(C)C)c1)C(=O)N(Cc1ccccc1)C2 [Compound 8, (E)-N-(3-(3-benzyl-7-((3-methyl-1-(2,2,2-trifluoroethyl)-1H-pyrazol-4-yl)amino)-2-oxo-3,4-dihydropyrimido[4,5-d]pyrimidin-1(2H)-yl)phenyl)-4-(dimethylamino)but-2-enamide]	0.009	0.103	0.58	0.0092	0.108
Cc1c(Nc2ncc3c(n2)N(c2cccc(NC(=O)/C=C/CN(C)C)c2)C(=O)N(Cc2ccccc2)C3)cnn1C [Compound 11, (E)-N-(3-(3-benzyl-7-((1,5-dimethyl-1H-pyrazol-4-yl)amino)-2-oxo-3,4-dihydropyrimido[4,5-d]pyrimidin-1(2H)-yl)phenyl)-4-(dimethylamino)but-2-enamide]	0.002	1.15	1.71	0.0096	2.43
CN(C)C/C=C/C(=O)N(C)c1cccc(N2C(=O)N(Cc3ccccc3)Cc3cnc(Nc4cnn(C)c4)nc32)c1 [Compound 21, (E)-N-(3-(3-benzyl-7-((1-methyl-1H-pyrazol-4-yl)amino)-2-oxo-3,4-dihydropyrimido[4,5-d]pyrimidin-1(2H)-yl)phenyl)-4-(dimethylamino)-N-methylbut-2-enamide]	0.045	2.81	2.08	0.0839	3.35
